We go through one substance from patent US20040198663A1, “Method of treating cardiac ischemia by using erythropoietin” (priority 2003, published 2004).

In one test the test system is nitric oxide synthase. The test is described as follows: Nitrite and nitrate release from isolated hearts. To be noted: before 2.3±0.9. More on the design: species or system rabbit. The protocol: Nitrite and nitrate release from hearts before (2.3±0.9 nmoles/min/g) and after (2.4±1.9 nmoles/min/g) 15 minutes treatment with erythropoietin (1.0 U/ml, n=8) were not different.

Test [1] relates to adult male Sprague Dawley rat hearts. The test is described as follows: Coronary artery ligation model, isolated perfused heart, 30 min regional ischemia and 3 hours reperfusion. To be noted: erythropoietin 1.0 U/ml 15 minutes prior to regional ischemia, vs control. The source says: Animals used in this study were adult male Sprague Dawley rats (200-350 g, generally 300 g). Animals were housed under standard conditions and allowed to feed ad lib. The Animal Care and Use Committee of the Medical College of Wisconsin approved all procedures performed in accordance with the regulations adopted by the National Institutes of Health.
A myocardial infarction was produced via the ligation of the left main artery using 6-0 prolene suture (See, e.g., Clements-Jewery et al., Br J Pharmacol. 135:807-815, 2002; Farkas et al., J Cardiovasc Pharmacol. 39,412-424, 2002). Rats were anesthetized with sodium pentobarbital (50 mg/kg i.p.). Heparin was then administered (150 U/kg i.p.) to prevent the formation of a thrombus in the coronary vasculature. The heart was then excised and perfused retrogradely with bicarbonate buffer at a pressure of 80 mmHg. (See e.g., Baker et al., Am J Physiol 278, H1395-H1400, 2000). The perfusate was not recirculated. […]
The heart was sectioned in 2 mm segments from apex to atrio-ventricular groove in a transverse fashion. Each segment was recorded and placed in formalin. […] The percentage of infarction of each slide was expressed as a percentage of the entire area of the heart.

Regarding “erythropoietin: Recombinant human erythropoietin, a glycoprotein hormone, obtained from Cell Science, Inc.”, the “nitrite and nitrate release from hearts after treatment” value in the test with nitric oxide synthase (after 15-minute erythropoietin 1.0 U/ml, not different (discussion)) turned out to be 2.4 ± 0.9 nmol/min/g; in the test on nitric oxide synthase (after 15 minutes erythropoietin 1.0 U/ml, not different), 2.4 ± 1.9 nmol/min/g. In addition, in test [1], the myocardial infarct size entry is reported as “decrease in myocardial infarct size”.
